Measured values published in paper PMC7684578, “Isopedopeptins A–H: Cationic Cyclic Lipodepsipeptides from Pedobacter cryoconitis UP508 Targeting WHO Top-Priority Carbapenem-Resistant Bacteria” (ACS Chemical Biology, 2020).
Read-outs that look alike come from different tables or passages of the source. Starred links: 1 amine or outer side, 2 acyl side, 3 side chain; linkers in the order of their positions; H or OH if unused. Positions of bridges follow the written chain, without caps; N, C: chain ends. Non-standard residues stand in square brackets, D forms with d. Residues, ends and D or L forms follow the SMILES beside them. X4 = CC(C)CCC=CCCC[C@H](CC(=O)[*:1])O[*:2]; X6 = CC(C)CCCCC=CC[C@H](CC(=O)[*:1])O[*:2]; X5 = CC(C)CCCCCCC[C@H](CC(=O)[*:1])O[*:2]; X3 = CC(C)CCCCC[C@H](CC(=O)[*:1])O[*:2]; X7 = CCCCCCC=CC[C@H](CC(=O)[*:1])O[*:2]; X2 = CCCCCCC[C@H](CC(=O)[*:1])O[*:2]; Val(3-OH) = CC(C)(O)[C@H](N)C(=O)O; X1 = C/C=C(/N[*:1])C(=O)[*:2]; Dab = NCC[C@H](N)C(=O)O; Dap = NC[C@H](N)C(=O)O

Columns and labels:
HepG2 cells = test: In vitro cytotoxicity, fluorometric microculture cytotoxicity assay; type: cell-based; settings: Homo sapiens, HepG2 liver, 72 h
Protocol: 10^8 CFU/mL) with turbidity assessed using a Sensititre Nephelometer (Trek Diagnostics Systems Ltd, UK). 50 µL of this bacterial suspension was transferred to 10 mL of MHII broth to give a final bacterial concentration ≅ 5 × 10^5 CFU/mL (acceptable range 3 – 7 × 10^5 CFU/mL). 50 µL of bacterial suspension was pipetted into each well (except the medium control well, where 50 µL MHII was pipetted). Final volume in each well was 100 µL. Plates were covered and incubated without shaking for 18-20 h at 35 °C ± 2 °C. MIC was read visually, as complete inhibition of growth by the unaided eye, using the medium-only wells as the control. Each compound was assayed at least in duplicate.
Additionally, the MIC for compound 2 against clinical carbapenem-resistant strains of A. baumannii […]
determined at the Public Health Agency of Sweden (according to EUCAST recommendations).
In vitro Cytotoxicity Determination. In vitro cytotoxicity was determined by a fluorometric microculture cytotoxicity assay,7 based on hydrolysis of fluorescein diacetate to fluorescein by cells with intact plasma membranes. In short, HepG2 cells (hepatocellular carcinoma cells, ATCC), in Eagle's Minimum Essential Medium (ATCC) supplemented with 10 % fetal bovine serum, penicillin/streptomycin (100 U/100 µg/mL) and 2 mM L-glutamine, were seeded in 384-well assay plates at a density of 1000 cells/well. The cells were incubated over night at 37°C and compounds in 10 mM DMSO were added, to obtain final concentrations 64 µM – 0.25 µM in two-fold dilutions.
After incubation for 72 h at 37°C, the cells were pelleted and washed. Fluorescein diacetate was added (1 µL, 0.5 mg/mL) and the fluorescence [485 nm(exc)/530 nm(em.)] was measured after 50 min at 37°C. Bortezomib (2 µM) was used as positive control and dose response testing of doxorubicin (top concentration 2 µM) was performed repeatedly to follow assay performance over time. Cytotoxicity was assessed after 72 h with cell survival presented as survival index (SI, %) defined as fluorescence in test wells in percent of control cultures with blank values subtracted.
Criteria for a successful assay include a signal-to-noise ratio in control cultures >10, CV <30% and a 7 Lindhagen, E., Nygren, P., and Larsson, R. (2008) The fluorometric microculture cytotoxicity assay. Nat. […]
(§1) positive control (Bortezomib) SI of <5%. The half maximal inhibitory concentration (IC50) was determined from log concentration-effect curves using non-linear regression analysis.
(§2) Frequency of resistance (FoR). For the determination of the FoR, the MIC of compound 2 was first evaluated on solid MH-agar medium prepared in 35 mm diameter plates. Each plate contained 4 mL agar with the appropriate amount of compound. Bacterial cultures were grown and prepared as described for the MIC assay. 13 µL of bacterial culture diluted to 0.5 MacFarland was inoculated into 1 mL 0.9% NaCl resulting in ~2 × 10^6 CFU/mL. 5 µL of this bacterial suspension was spotted onto the surface of each agar plate (~10^4 CFU/spot). Plates were sealed and incubated at 37°C for 18–20 hours. Agar MIC was recorded according to CLSI guidelines as the lowest concentration of […]
faint haze caused by the inoculum. Then 9 cm plates were prepared with 25 mL MHII agar medium containing 4 × or 8 × solid MIC concentrations of test compounds and seeded with 100 µL of a bacterial preparation, concentrated by centrifugation from overnight cultures and resuspended in 0.9% NaCl, corresponding to 108 CFU and 109 CFU per plate, and spread on the agar using 4–5 glass beads of 4 mm diameter. Since CFU were evaluated using the McFarland turbidity standard, the exact CFU number plated was evaluated by plating of serial dilutions of each inoculum preparation on MHII agar plates. Plates were incubated at 37°C and colonies were counted at 24 h and 48 h post-plating. The frequencies of resistance were then calculated by counting the number of validated resistant colonies growing on antibiotic preparations divided by the evaluated number of CFU in the inoculum. […]

in vitro = type: cell-based; settings: human, pH 7.4, Hemolysis (%)
Protocol: as §1, §2
faint haze caused by the inoculum. Then 9 cm plates were prepared with 25 mL MHII agar medium containing 4 × or 8 × solid MIC concentrations of test compounds and seeded with 100 µL of a bacterial preparation, concentrated by centrifugation from overnight cultures and resuspended in 0.9% NaCl, corresponding to 108 CFU and 109 CFU per plate, and spread on the agar using 4–5 glass beads of 4 mm diameter. Since CFU were evaluated using the McFarland turbidity standard, the exact CFU number plated was evaluated by plating of serial dilutions of each inoculum preparation on MHII agar plates. Plates were incubated at 37°C and colonies were counted at 24 h and 48 h post-plating. The frequencies of resistance were then calculated by counting the number of validated resistant colonies growing on antibiotic preparations divided by the evaluated number of CFU in the inoculum.
Hemolysis assay. Compounds were evaluated for hemolytic activity using red blood cells from heparinized human blood. Red blood cells (RBC) were washed three times in Tyrode buffer (130 mM NaCl, 4 mM KCl, 2.8 mM NaOAc, 1 mM MgCl2, 10 mM HEPES, 10 mM glucose, 1 mM CaCl2, adjusted to pH 7.4) and resuspended in the same buffer. Final concentrations in the hemolysis assay were: 100 µM compound, 1% DMSO, and 50% RBC, assayed in a 200 µL volume in a microtiter plate. The mixture was incubated at 37 °C for 45 min with shaking (250 rpm). After incubation, RBCs were removed by centrifugation (1000 × g for 10 min), 100 µL clear plasma was transferred to a fresh microtiter plate, and the amount of hemoglobin measured using a spectrophotometer at 540 nm. The […]
complete lysis control contained 2% Triton X-100 (in Tyrode buffer) instead of compound; the negative control contained Tyrode buffer but no compound. Percent hemolysis was calculated as:
[Abs compound] - [Abs negative control] / [Abs complete lysis control] - [Abs negative control] ×
100. Values greater than 1% hemolysis at 100 µM were regarded as a red flag.
Bacterial membrane permeabilization assay. Liposomes were manufactured and permeabilization assayed as described previously.8 Briefly, dry lipid films of E. coli polar lipid extract were formed on round-bottom flask walls. This was achieved by dissolving lipids in chloroform and evaporating the solvent under agitation and nitrogen gas flow, followed by incubation in vacuum chamber. Lipid films were re-suspended by 30 min stirring (E. coli) at 55°C in an aqueous solution of 100 mM 5(6)-carboxyfluorescein in 10 mM Tris buffer (set to pH 7.4 at 37°C). Suspensions were subjected to repeated extrusion through a 100 nm pore size polycarbonate membrane in order to reduce multilamellar structures and polydispersity. Un-trapped carboxyfluorescein was removed by gel filtration. Membrane permeability was measured by monitoring carboxyfluorescein efflux from the liposomes to the external low concentration environment, resulting in loss of self-quenching and an increased fluorescence signal. The 96-well plates were prepared with a 2-fold serial dilution of the samples in Tris buffer, as well as negative controls (background) and 0.16% Triton X-100 (maximum […]
leakage). […]

SMILES	IC50 (HepG2 cells; read-out: IC50(μM) HepG2)	IC50 (HepG2 cells; read-out: IC50(μg/mL) HepG2)	hemolysis at 45 min, 100 µM (in vitro)
C/C=C1/NC(=O)[C@H](CCN)NC(=O)[C@H](CC(C)C)NC(=O)[C@H](CN)NC(=O)C[C@@H](CCCCCC(C)C)OC(=O)[C@H](CC(=O)O)NC(=O)[C@H](C(C)C)NC(=O)[C@@H](Cc2ccccc2)NC(=O)[C@H](CN)NC(=O)[C@H]([C@@H](C)O)NC1=O [Compound 5, Isopedopeptin E] ([Dap]L[Dab][X1]T[Dap][dF]VD; linker N-C via X3)	13 µM	14 µg/mL	5.2%
C/C=C1/NC(=O)[C@H](CCN)NC(=O)[C@H](CC(C)C)NC(=O)[C@H](CN)NC(=O)C[C@@H](CCCCCCC)OC(=O)[C@H](CC(=O)O)NC(=O)[C@H](C(C)C)NC(=O)[C@@H](Cc2ccccc2)NC(=O)[C@H](CN)NC(=O)[C@H]([C@@H](C)O)NC1=O [Compound 4, isopedopeptin D] ([Dap]L[Dab][X1]T[Dap][dF]VD; linker N-C via X2)	9 µM	10 µg/mL	9.1%
C/C=C1/NC(=O)[C@H](CCN)NC(=O)[C@H](CC(C)C)NC(=O)[C@H](CN)NC(=O)C[C@@H](CC=CCCCCC(C)C)OC(=O)[C@H](CC(=O)O)NC(=O)[C@H](C(C)C)NC(=O)[C@@H](Cc2ccccc2)NC(=O)[C@H](CN)NC(=O)[C@H]([C@@H](C)O)NC1=O [Compound 8, Isopedopeptin H] ([Dap]L[Dab][X1]T[Dap][dF]VD; linker N-C via X6)	14 µM	16 µg/mL	52.3%
C/C=C1/NC(=O)[C@H](CCN)NC(=O)[C@H](CC(C)C)NC(=O)[C@H](CN)NC(=O)C[C@@H](CCCCCCC)OC(=O)[C@H](CC(=O)O)NC(=O)[C@H](C(C)(C)O)NC(=O)[C@@H](Cc2ccccc2)NC(=O)[C@H](CN)NC(=O)[C@H]([C@@H](C)O)NC1=O [Compound 2, isopedopeptin B] ([Dap]L[Dab][X1]T[Dap][dF][Val(3-OH)]D; linker N-C via X2)	50 µM	56 µg/mL	< 0.8%
C/C=C1/NC(=O)[C@H](CCN)NC(=O)[C@H](CC(C)C)NC(=O)[C@H](CN)NC(=O)C[C@@H](CC=CCCCCCC)OC(=O)[C@H](CC(=O)O)NC(=O)[C@H](C(C)(C)O)NC(=O)[C@@H](Cc2ccccc2)NC(=O)[C@H](CN)NC(=O)[C@H]([C@@H](C)O)NC1=O [Compound 3, isopedopeptin C] ([Dap]L[Dab][X1]T[Dap][dF][Val(3-OH)]D; linker N-C via X7)	29 µM	33 µg/mL	3%
C/C=C1/NC(=O)[C@H](CCN)NC(=O)[C@H](CC(C)C)NC(=O)[C@H](CN)NC(=O)C[C@@H](CCCC=CCCC(C)C)OC(=O)[C@H](CC(=O)O)NC(=O)[C@H](C(C)C)NC(=O)[C@@H](Cc2ccccc2)NC(=O)[C@H](CN)NC(=O)[C@H]([C@@H](C)O)NC1=O [Compound 7, Isopedopeptin G] ([Dap]L[Dab][X1]T[Dap][dF]VD; linker N-C via X4)	11 µM	13 µg/mL	14.1%
C/C=C1/NC(=O)[C@H](CCN)NC(=O)[C@H](CC(C)C)NC(=O)[C@H](CN)NC(=O)C[C@@H](CCCCCCCC(C)C)OC(=O)[C@H](CC(=O)O)NC(=O)[C@H](C(C)(C)O)NC(=O)[C@@H](Cc2ccccc2)NC(=O)[C@H](CN)NC(=O)[C@H]([C@@H](C)O)NC1=O [Compound 6, Isopedopeptin F] ([Dap]L[Dab][X1]T[Dap][dF][Val(3-OH)]D; linker N-C via X5)	9 µM	10 µg/mL	27.5%
C/C=C1/NC(=O)[C@H](CCN)NC(=O)[C@H](CC(C)C)NC(=O)[C@H](CN)NC(=O)C[C@@H](CCCCCC(C)C)OC(=O)[C@H](CC(=O)O)NC(=O)[C@H](C(C)(C)O)NC(=O)[C@@H](Cc2ccccc2)NC(=O)[C@H](CN)NC(=O)[C@H]([C@@H](C)O)NC1=O [Compound 1, cyclo(3-hydroxy-9-methyldecanoyl-DAPA1-Leu-DABA-ABA-Thr-DAPA2-Phe-OHVal-Asp)] ([Dap]L[Dab][X1]T[Dap][dF][Val(3-OH)]D; linker N-C via X3)	29 µM	33 µg/mL	4.2%
